Assay results taken from PubChem BioAssay (NCI).
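Cells were grown in 96-well plates and exposed to each compound for 48 hours at five concentrations; endpoints were interpolated linearly between bracketing concentrations, or set to the highest concentration if not reached. GI50 marks 50% less growth. Definition used: TGI = concentration required for complete inhibition of growth.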

Key:
Experiment in all cases: growth of human tumour cells (NCI), 48 h
[1] = system: NCI-H23 lung
[2] = system: NCI-H460 lung
[3] = system: NCI-H522 lung
[4] = system: NCI/ADR-RES ovarian
[5] = system: OVCAR-3 ovarian
[6] = system: OVCAR-4 ovarian
[7] = system: OVCAR-5 ovarian
[8] = system: OVCAR-8 ovarian
[9] = system: PC-3 prostate
[10] = system: RPMI-8226 leukemia
[11] = system: RXF 393 renal
[12] = system: SF-268 CNS
[13] = system: SF-295 CNS
[14] = system: SF-539 CNS
[15] = system: SK-MEL-2 melanoma
[16] = system: SK-MEL-28 melanoma
[17] = system: SK-MEL-5 melanoma
[18] = system: SK-OV-3 ovarian
[19] = system: SN12C renal
[20] = system: SNB-19 CNS
[21] = system: SNB-75 CNS
[22] = system: SR leukemia
[23] = system: SW-620 colon
[24] = system: T-47D breast
[25] = system: TK-10 renal
[26] = system: U251 CNS
[27] = system: UACC-257 melanoma
[28] = system: UACC-62 melanoma
[29] = system: UO-31 renal

N=c1c2c(-c3ccccc3)c(-c3ccccc3)n(Cc3ccccc3)c2ncn1CCCO
TGI [1]: 24.3 µM
GI50 [2]: 0.448 µM
TGI [2]: 4.47 µM
GI50 [3]: 0.756 µM
TGI [3]: 3.46 µM
GI50 [4]: 1.33 µM
TGI [4]: 17.6 µM
GI50 [5]: 1.38 µM
TGI [5]: 8.08 µM
GI50 [6]: 1.43 µM
TGI [6]: 13.4 µM
GI50 [7]: 7.27 µM
TGI [7]: 23.4 µM
GI50 [8]: 0.739 µM
TGI [8]: 22.2 µM
GI50 [9]: 1.62 µM
TGI [9]: 12.2 µM
GI50 [10]: 2.86 µM
TGI [10]: 16 µM
GI50 [11]: 0.443 µM
TGI [11]: 2.5 µM
GI50 [12]: 0.894 µM
TGI [12]: 20.8 µM
GI50 [13]: 0.58 µM
TGI [13]: 3.32 µM
GI50 [14]: 1.24 µM
TGI [14]: 4.17 µM
GI50 [15]: 1.77 µM
TGI [15]: 5.64 µM
GI50 [16]: 1.44 µM
TGI [16]: 3.4 µM
GI50 [17]: 0.901 µM
TGI [17]: 2.16 µM
GI50 [18]: 4.18 µM
TGI [18]: 17.9 µM
GI50 [19]: 1.99 µM
TGI [19]: 19.6 µM
GI50 [20]: 2.21 µM
TGI [20]: 21.3 µM
GI50 [21]: 1.38 µM
TGI [21]: 8.43 µM
GI50 [22]: 0.268 µM
TGI [22]: 6.4 µM
GI50 [23]: 0.377 µM
TGI [23]: 15.5 µM
GI50 [24]: 3.13 µM
TGI [24]: 18.1 µM
GI50 [25]: 5.37 µM
TGI [25]: 19.3 µM
GI50 [26]: 0.704 µM
TGI [26]: 13.3 µM
GI50 [27]: 1.75 µM
TGI [27]: 5.17 µM
GI50 [28]: 1.91 µM
TGI [28]: 14.4 µM
GI50 [29]: 2.24 µM
TGI [29]: 16.5 µM
